Data as given in ChEMBL document CHEMBL1201862, “PubChem BioAssay data set” (2004).
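Briefly, cells in 96-well plates were exposed to five compound concentrations for 48 h, and endpoints were estimated by linear interpolation. GI50 marks 50% less growth.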 Active and inactive are the calls of the source. Cut-off read from the data, not from the text of the source: active = GI50 up to about 1.1 µM and inactive = higher.

Tests used:
Experiment in all cases: growth of human tumour cells (NCI), 48 h
[1] = system: A498
[2] = system: CCRF-CEM
[3] = system: K562
[4] = system: KM12
[5] = system: LXFL 529
[6] = system: MOLT-4
[7] = system: NCI-H460
[8] = system: RPMI-8226
[9] = system: RXF 393
[10] = system: SF-268
[11] = system: SK-MEL-2
[12] = system: SK-MEL-5
[13] = system: SK-OV-3
[14] = system: SW-620
[15] = system: TK-10

Measured: GI50

NC1CCCCC1.O=C(O)C1(P(=O)(O)O)CC1
inactive: [1] > 100 µM | [2] > 100 µM | [3] > 100 µM | [4] > 100 µM | [5] > 100 µM | [6] > 100 µM | [7] > 100 µM | [8] > 100 µM | [9] > 100 µM | [10] > 100 µM | [11] > 100 µM | [12] > 100 µM | [13] > 100 µM | [14] > 100 µM | [15] > 100 µM

CC(=O)OC1COC(n2c(=S)n(-c3ccc(C)cc3)c(=O)c3ccccc32)C(OC(C)=O)C1OC(C)=O (stereo not given)
inactive: [1] > 100 µM | [4] > 100 µM | [5] 58.3 µM | [6] > 100 µM | [7] > 100 µM | [8] 47.5 µM | [9] 67.3 µM | [10] > 100 µM | [11] > 100 µM | [12] > 100 µM | [13] > 100 µM | [14] > 100 µM

O=S(=O)(N/N=C/c1cccc(/C=N/NS(=O)(=O)c2ccccc2)c1)c1ccccc1
inactive: [1] > 100 µM | [2] 76.4 µM | [3] 60.4 µM | [4] 58.6 µM | [5] 39 µM | [6] 84.5 µM | [7] 68.7 µM | [8] 70.8 µM | [9] 51.6 µM | [10] > 100 µM | [11] > 100 µM | [12] 39.2 µM | [13] > 100 µM | [15] 47.8 µM

Cc1[nH]c2ccccc2c1-c1n[nH]c(=O)c2ccccc12
inactive: [1] 19.8 µM | [2] 22.9 µM | [3] 5.25 µM | [4] 11.3 µM | [5] 21.6 µM | [6] 20.5 µM | [7] 22.9 µM | [8] 20.8 µM | [9] 12.9 µM | [11] 31.7 µM | [12] 15.5 µM | [13] 25.1 µM | [14] 16.1 µM | [15] 37.1 µM

Cc1[nH]c2ccccc2c1C1Cc2ccccc2N1C(=O)/C(Cl)=C/c1ccccc1 (stereo not given)
inactive: [1] > 78.2 µM | [2] > 73.1 µM | [3] 70.3 µM | [4] > 100 µM | [5] > 100 µM | [6] 15.2 µM | [7] > 100 µM | [8] > 72.6 µM | [9] 7.83 µM | [10] > 78.9 µM | [11] > 91 µM | [12] > 100 µM | [13] > 100 µM | [14] > 100 µM | [15] > 73.3 µM

N#C/C(=C1\SC(C(N)=O)=C(N)N1c1ccccc1)c1nc2ccccc2[nH]1
inactive: [1] 42.6 µM | [2] > 100 µM | [3] > 100 µM | [5] > 100 µM | [6] > 100 µM | [7] > 100 µM | [10] > 100 µM | [11] > 100 µM | [12] > 100 µM | [13] > 100 µM | [14] > 100 µM | [15] 87.9 µM

S=C1ON=C(c2ccccc2)/C1=C/Nc1ccccc1
inactive: [1] 5.69 µM | [2] > 100 µM | [3] 9.98 µM | [4] 23.2 µM | [5] > 100 µM | [6] > 100 µM | [7] > 100 µM | [8] > 100 µM | [9] 94.8 µM | [10] > 100 µM | [11] > 100 µM | [12] > 100 µM | [13] > 100 µM | [14] > 100 µM | [15] > 100 µM

CC(C)C(C(=O)O)N(CC1(O)OCC(O)C(O)C1O)N=O (stereo not given)
inactive: [1] > 100 µM | [2] > 100 µM | [3] > 100 µM | [4] > 100 µM | [5] > 100 µM | [6] > 100 µM | [7] > 100 µM | [8] > 100 µM | [9] > 100 µM | [11] > 100 µM | [12] > 100 µM | [13] > 100 µM | [14] > 100 µM | [15] > 100 µM

CSc1nc2c(nc(N)n2C2OC(COC(C)=O)C(OC(C)=O)C(OC(C)=O)C2OC(C)=O)c(=O)n1C (stereo not given)
inactive: [1] > 100 µM | [2] > 100 µM | [3] > 100 µM | [4] > 100 µM | [5] > 100 µM | [6] > 100 µM | [7] > 100 µM | [8] > 100 µM | [9] > 100 µM | [11] > 100 µM | [12] > 100 µM | [13] > 100 µM | [14] > 100 µM | [15] > 100 µM

Cc1cc(N(CCC#N)S(=O)(=O)c2ccccc2)ccc1C=O
inactive: [1] > 100 µM | [2] > 100 µM | [3] > 100 µM | [4] > 100 µM | [5] > 100 µM | [6] > 100 µM | [7] > 100 µM | [8] > 100 µM | [9] > 100 µM | [10] > 100 µM | [11] > 100 µM | [12] > 100 µM | [13] > 100 µM | [14] > 100 µM

CC(C)(C)NCC(COc1ccc([N+](=O)[O-])cc1)OP(c1ccccc1)c1ccccc1 (stereo not given)
inactive: [1] 44.7 µM | [2] 27.8 µM | [3] 32.7 µM | [4] 29.9 µM | [5] 19.3 µM | [6] 18.9 µM | [7] 35.8 µM | [8] 13.5 µM | [9] 30.3 µM | [10] 49.1 µM | [11] 35.4 µM | [12] 18.8 µM | [13] 60.5 µM | [14] 47.4 µM | [15] 43.9 µM

CN(C)CC1(C)CC/C(=C\c2ccc3c(c2)OCO3)C1=O (stereo not given)
inactive: [1] > 100 µM | [2] 59.4 µM | [3] 53.6 µM | [4] > 100 µM | [5] > 100 µM | [6] 96.4 µM | [7] > 100 µM | [8] 27.5 µM | [9] > 100 µM | [10] > 100 µM | [11] > 100 µM | [12] > 100 µM | [14] 92.9 µM | [15] > 100 µM

Clc1ccc2c(c1)-c1c3c(nn1-c1ccccc1)-c1ccccc1SC3O2 (stereo not given)
inactive: [1] > 100 µM | [2] 44.9 µM | [3] 75.3 µM | [4] > 100 µM | [5] > 100 µM | [6] > 100 µM | [7] > 100 µM | [8] > 100 µM | [9] > 100 µM | [10] > 100 µM | [11] > 100 µM | [12] > 100 µM | [13] > 100 µM | [14] > 100 µM | [15] > 100 µM

Cc1ccc(/N=N/c2c(C)nn(-c3ccccc3)c2-c2ccccc2)c(Br)c1
inactive: [1] > 100 µM | [2] 21 µM | [3] 25.4 µM | [4] > 100 µM | [5] 87.9 µM | [6] 8.15 µM | [7] 31.8 µM | [10] > 100 µM | [11] > 100 µM | [13] > 100 µM | [14] 63.5 µM | [15] > 100 µM
